# Measured values reported in patent US6790848B2, “4-piperazinylindole derivatives with 5-HT6 receptor affinity” (Syntex (U.S.A.) LLC, priority 2001, dated 2004).
# Structures can show the parent of a compound that is named as a salt.
row,melting point,SMILES
1,166 to 167 °C,CCS(=O)(=O)c1cccc(S(=O)(=O)n2ccc3c(N4CCNCC4)cccc32)c1 (as salt: hydrochloride) [1-(3-ethanesulfonyl-benzenesulfonyl)-4-piperazin-1-yl-1H-indole]
2,220 to 222 °C,CC(C)CS(=O)(=O)c1cccc(S(=O)(=O)n2ccc3c(N4CCNCC4)cccc32)c1 (as salt: trifluoroacetate) [1-[3-(2-methyl-propane-1-sulfonyl)-benzenesulfonyl]-4-piperazin-1-yl-1H-indole]
3,245 to 246 °C (dec.),"COc1ccc(OC)c(S(=O)(=O)n2ccc3c(N4CCNCC4)cccc32)c1 (as salt: trifluoroacetate) [1-(2,5-dimethoxy-benzenesulfonyl)-4-piperazin-1-yl-1H-indole]"

row,SMILES,melting point
1,O=S(=O)(c1cccc(F)c1)n1ccc2c(N3CCNCC3)cccc21 (as salt: trifluoroacetate) [1-(3-fluoro-benzenesulfonyl)-4-piperazin-1-yl-1H-indole],227 to 228 °C (dec.)
2,"O=S(=O)(c1cc(Cl)ccc1Cl)n1ccc2c(N3CCNCC3)cccc21 (as salt: trifluoroacetate) [1-(2,5-dichloro-benzenesulfonyl)-4-piperazin-1-yl-1H-indole]",237 to 238 °C (dec.)
